The values that follow come from patent US20240239861A1, “GLUCAGON-RECEPTOR SELECTIVE POLYPEPTIDES AND METHODS OF USE THEREOF” (i2O Therapeutics, Inc., priority 2016, published 2024).

Like-named read-outs stand apart in the source and are kept apart here. Where a SMILES comes first, the peptide text is derived from it. [ ]: non-standard residue; d: D form. Aib = CC(C)(N)C(=O)O

In assay [1] the target is human GCGR (Homo sapiens, UniProt P47871). Description: Peptide-receptor mediated cAMP accumulation (LANCE Ultra cAMP) in CHO-K1 cells transfected with human GCGR. It is filed as cell-based. A general note: Cyclic AMP is a second messenger, typically raised through Gs and lowered through Gi signalling.
Sequence of human GCGR (P47871 26-477): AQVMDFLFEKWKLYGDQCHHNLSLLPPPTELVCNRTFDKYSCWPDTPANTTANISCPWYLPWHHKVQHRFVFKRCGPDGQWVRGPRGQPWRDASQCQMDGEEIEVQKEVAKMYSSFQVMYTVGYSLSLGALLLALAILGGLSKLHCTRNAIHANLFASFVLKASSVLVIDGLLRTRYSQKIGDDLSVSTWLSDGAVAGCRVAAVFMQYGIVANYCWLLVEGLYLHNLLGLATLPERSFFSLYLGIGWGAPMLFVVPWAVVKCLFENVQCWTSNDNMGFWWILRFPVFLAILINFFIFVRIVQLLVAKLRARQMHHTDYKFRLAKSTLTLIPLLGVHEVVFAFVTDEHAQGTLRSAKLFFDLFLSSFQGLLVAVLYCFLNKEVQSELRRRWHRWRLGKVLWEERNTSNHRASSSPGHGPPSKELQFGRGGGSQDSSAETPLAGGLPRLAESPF
Assay [2] deals with human GLP-1R (Homo sapiens, UniProt P43220). Description: Peptide-receptor mediated cAMP accumulation (LANCE Ultra cAMP) in CHO-K1 cells transfected with human GLP-1R. The format is cell-based.
Sequence of human GLP-1R (P43220 24-463): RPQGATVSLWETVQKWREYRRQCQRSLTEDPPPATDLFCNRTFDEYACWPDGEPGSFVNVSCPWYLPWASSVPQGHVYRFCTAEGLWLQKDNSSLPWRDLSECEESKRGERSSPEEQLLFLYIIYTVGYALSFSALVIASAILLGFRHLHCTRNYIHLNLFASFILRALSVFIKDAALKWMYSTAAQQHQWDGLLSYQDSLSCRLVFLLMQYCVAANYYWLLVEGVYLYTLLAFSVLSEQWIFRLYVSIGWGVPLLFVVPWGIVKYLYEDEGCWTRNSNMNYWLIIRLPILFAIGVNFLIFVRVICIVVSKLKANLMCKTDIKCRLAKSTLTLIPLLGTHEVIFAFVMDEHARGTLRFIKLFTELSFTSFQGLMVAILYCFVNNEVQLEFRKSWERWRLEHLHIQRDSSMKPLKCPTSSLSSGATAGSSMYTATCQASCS
Where [3] appears, read: hGLP1 pEC50 (cAMP mean (n = 3): 11 point curve starting at 1 nM, Table 3).

Turning to `CC(C)C[C@H](NC(=O)[C@H](Cc1ccc(O)cc1)NC(=O)[C@H](CCCCN)NC(=O)[C@H](CO)NC(=O)[C@H](Cc1ccc(O)cc1)NC(=O)[C@H](CC(=O)O)NC(=O)[C@H](CO)NC(=O)[C@@H](NC(=O)[C@H](Cc1ccccc1)NC(=O)[C@@H](NC(=O)CNC(=O)[C@H](Cc1c[nH]cn1)NC(=O)[C@H](CO)NC(=O)[C@@H](N)Cc1ccc(O)cc1)[C@@H](C)O)[C@@H](C)O)C(=O)N[C@@H](CC(=O)O)C(=O)NC(C)(C)C(=O)N[C@@H](CCCCN)C(=O)N[C@H](C(=O)N[C@@H](C)C(=O)N[C@@H](CCC(N)=O)C(=O)N[C@@H](CCC(=O)O)C(=O)N[C@@H](Cc1ccccc1)C(=O)N[C@H](C(=O)NC(C)(C)C(=O)N[C@@H](Cc1c[nH]c2ccccc12)C(=O)N[C@@H](CC(C)C)C(=O)N[C@@H](CCC(=O)O)C(=O)N[C@@H](CC(=O)O)C(=O)N[C@@H](CCC(=O)O)C(=O)N1CCC[C@H]1C(=O)N[C@@H](CO)C(=O)N[C@@H](CO)C(=O)NCC(=O)N[C@@H](C)C(=O)N1CCC[C@H]1C(=O)N1CCC[C@H]1C(=O)N1CCC[C@H]1C(=O)N[C@@H](CO)C(=O)O)C(C)C)[C@@H](C)O` [Compound A77] (H-YSHGTFTSDYSKYLD[Aib]KTAQEFV[Aib]WLEDEPSSGAPPPS-OH; N-terminus assumed), the figures for the EC50 in assay [1] (Table 3) and in assay [2] (setting [3]) were 0.00316 nM and greater than 1 nM, respectively.
The corresponding values for `CC(C)C[C@H](NC(=O)[C@H](Cc1ccc(O)cc1)NC(=O)[C@H](CCCCN)NC(=O)[C@H](CO)NC(=O)[C@H](Cc1ccc(O)cc1)NC(=O)[C@H](CC(=O)O)NC(=O)[C@H](CO)NC(=O)[C@@H](NC(=O)[C@H](Cc1ccccc1)NC(=O)[C@@H](NC(=O)CNC(=O)[C@H](Cc1c[nH]cn1)NC(=O)[C@H](CO)NC(=O)[C@@H](N)Cc1ccc(O)cc1)[C@@H](C)O)[C@@H](C)O)C(=O)N[C@@H](CC(=O)O)C(=O)NC(C)(C)C(=O)N[C@@H](CCCCN)C(=O)N[C@@H](CCCNC(=N)N)C(=O)N[C@@H](C)C(=O)N[C@@H](CCC(N)=O)C(=O)N[C@@H](CCC(=O)O)C(=O)N[C@@H](Cc1ccccc1)C(=O)N[C@H](C(=O)NC(C)(C)C(=O)N[C@@H](Cc1c[nH]c2ccccc12)C(=O)N[C@@H](CC(C)C)C(=O)N[C@@H](CCC(=O)O)C(=O)N[C@@H](CC(=O)O)C(=O)N[C@@H](CCC(=O)O)C(=O)N[C@@H](CCCCN)C(=O)N[C@@H](CCCNC(=N)N)C(=O)N[C@@H](CC(N)=O)C(=O)N[C@@H](CCCCN)C(=O)N1CCC[C@H]1C(=O)N1CCC[C@H]1C(=O)N1CCC[C@H]1C(=O)N[C@@H](C)C(=O)O)C(C)C` [Compound A45] (H-YSHGTFTSDYSKYLD[Aib]KRAQEFV[Aib]WLEDEKRNKPPPA-OH; N-terminus assumed) are 0.002 nM and greater than 1 nM.
The corresponding values for `CC(C)C[C@H](NC(=O)[C@H](Cc1ccc(O)cc1)NC(=O)[C@H](CCCCN)NC(=O)[C@H](CO)NC(=O)[C@H](Cc1ccc(O)cc1)NC(=O)[C@H](CC(=O)O)NC(=O)[C@H](CO)NC(=O)[C@@H](NC(=O)[C@H](Cc1ccccc1)NC(=O)[C@@H](NC(=O)CNC(=O)[C@H](Cc1c[nH]cn1)NC(=O)[C@H](CO)NC(=O)[C@@H](N)Cc1ccc(O)cc1)[C@@H](C)O)[C@@H](C)O)C(=O)N[C@@H](CC(=O)O)C(=O)NC(C)(C)C(=O)N[C@@H](CCCCN)C(=O)N[C@@H](CCC(=O)O)C(=O)N[C@@H](C)C(=O)N[C@@H](CCC(N)=O)C(=O)N[C@@H](CCC(=O)O)C(=O)N[C@@H](Cc1ccccc1)C(=O)N[C@H](C(=O)NC(C)(C)C(=O)N[C@@H](Cc1c[nH]c2ccccc12)C(=O)N[C@@H](CC(C)C)C(=O)N[C@@H](CCC(=O)O)C(=O)N[C@@H](CC(=O)O)C(=O)N[C@@H](CCC(=O)O)C(=O)N1CCC[C@H]1C(=O)N[C@@H](CO)C(=O)N[C@@H](CO)C(=O)NCC(=O)N[C@@H](C)C(=O)N1CCC[C@H]1C(=O)N1CCC[C@H]1C(=O)N1CCC[C@H]1C(=O)N[C@@H](CO)C(=O)O)C(C)C` [Compound A79] (H-YSHGTFTSDYSKYLD[Aib]KEAQEFV[Aib]WLEDEPSSGAPPPS-OH; N-terminus assumed) are 0.0631 nM and greater than 1 nM.
On the same counts, the results for `CC(C)C[C@H](NC(=O)[C@H](Cc1ccc(O)cc1)NC(=O)[C@H](CCCCN)NC(=O)[C@H](CO)NC(=O)[C@H](Cc1ccc(O)cc1)NC(=O)[C@H](CC(=O)O)NC(=O)[C@H](CO)NC(=O)[C@@H](NC(=O)[C@H](Cc1ccccc1)NC(=O)[C@@H](NC(=O)CNC(=O)[C@H](Cc1c[nH]cn1)NC(=O)[C@H](CO)NC(=O)[C@@H](N)Cc1ccc(O)cc1)[C@@H](C)O)[C@@H](C)O)C(=O)N[C@@H](CC(=O)O)C(=O)NC(C)(C)C(=O)N[C@@H](CCCCN)C(=O)N[C@@H](CCCNC(=N)N)C(=O)N[C@@H](C)C(=O)N[C@@H](CCC(N)=O)C(=O)N[C@@H](CCC(=O)O)C(=O)N[C@@H](Cc1ccccc1)C(=O)N[C@H](C(=O)NC(C)(C)C(=O)N[C@@H](Cc1c[nH]c2ccccc12)C(=O)N[C@@H](CC(C)C)C(=O)N[C@@H](CCC(=O)O)C(=O)N[C@@H](CC(=O)O)C(=O)N[C@@H](CCC(=O)O)C(=O)N[C@@H](CO)C(=O)N[C@@H](CO)C(=O)NCC(=O)N[C@@H](C)C(=O)N1CCC[C@H]1C(=O)N1CCC[C@H]1C(=O)N1CCC[C@H]1C(=O)N[C@@H](CO)C(=O)O)C(C)C` [Compound A14] (H-YSHGTFTSDYSKYLD[Aib]KRAQEFV[Aib]WLEDESSGAPPPS-OH; N-terminus assumed) are 0.001 nM and greater than 1 nM.
Turning to `CC(C)C[C@H](NC(=O)[C@H](Cc1ccc(O)cc1)NC(=O)[C@H](CCCCN)NC(=O)[C@H](CO)NC(=O)[C@H](Cc1ccc(O)cc1)NC(=O)[C@H](CC(=O)O)NC(=O)[C@H](CO)NC(=O)[C@@H](NC(=O)[C@H](Cc1ccccc1)NC(=O)[C@@H](NC(=O)CNC(=O)[C@H](Cc1c[nH]cn1)NC(=O)[C@H](CO)NC(=O)[C@@H](N)Cc1ccc(O)cc1)[C@@H](C)O)[C@@H](C)O)C(=O)N[C@@H](CC(=O)O)C(=O)NC(C)(C)C(=O)N[C@@H](CCCCN)C(=O)N[C@@H](CO)C(=O)N[C@@H](C)C(=O)N[C@@H](CCC(N)=O)C(=O)N[C@@H](CCC(=O)O)C(=O)N[C@@H](Cc1ccccc1)C(=O)N[C@H](C(=O)NC(C)(C)C(=O)N[C@@H](Cc1c[nH]c2ccccc12)C(=O)N[C@@H](CC(C)C)C(=O)N[C@@H](CCC(=O)O)C(=O)N[C@@H](CC(=O)O)C(=O)N[C@@H](CCC(=O)O)C(=O)N1CCC[C@H]1C(=O)N[C@@H](CO)C(=O)N[C@@H](CO)C(=O)N[C@@H](CCCCNC(=O)COCCOCCNC(=O)COCCOCCNC(=O)CC[C@H](NC(=O)CCCCCCCCCCCCCCCCC(=O)O)C(=O)O)C(=O)N[C@@H](C)C(=O)N1CCC[C@H]1C(=O)N1CCC[C@H]1C(=O)N1CCC[C@H]1C(=O)N[C@@H](CO)C(=O)O)C(C)C` [Compound B13], the EC50 in assay [1] (read-out: GluR pEC50 (converted)) was 0.631 nM; in assay [2] (Table 7, GLP-1R, read-out: GLP-1R pEC50 (converted)), greater than 1000 nM.
On to `CC(C)C[C@H](NC(=O)[C@H](Cc1c[nH]c2ccccc12)NC(=O)[C@H](CCCCN)NC(=O)[C@H](CO)NC(=O)[C@H](Cc1ccc(O)cc1)NC(=O)[C@H](CC(=O)O)NC(=O)[C@H](CO)NC(=O)[C@@H](NC(=O)[C@H](Cc1ccccc1)NC(=O)[C@@H](NC(=O)CNC(=O)[C@H](Cc1c[nH]cn1)NC(=O)[C@@H](NC(=O)[C@@H](N)Cc1ccc(O)cc1)[C@@H](C)O)[C@@H](C)O)[C@@H](C)O)C(=O)N[C@@H](CC(=O)O)C(=O)N[C@@H](CO)C(=O)N[C@@H](C)C(=O)N[C@@H](CCCNC(=N)N)C(=O)N[C@@H](C)C(=O)N[C@@H](CCC(N)=O)C(=O)N[C@@H](CCC(=O)O)C(=O)N[C@@H](Cc1ccccc1)C(=O)N[C@H](C(=O)N[C@@H](CCCCN)C(=O)N[C@@H](Cc1c[nH]c2ccccc12)C(=O)N[C@@H](CC(C)C)C(=O)N[C@@H](CCC(=O)O)C(=O)N[C@@H](CC(=O)O)C(=O)N[C@@H](CCC(=O)O)C(=O)N1CCC[C@H]1C(=O)N[C@@H](CO)C(=O)N[C@@H](CO)C(=O)NCC(=O)N[C@@H](C)C(=O)N1CCC[C@H]1C(=O)N1CCC[C@H]1C(=O)N1CCC[C@H]1C(=O)N[C@@H](CO)C(=O)O)C(C)C` [Compound A39] (H-YTHGTFTSDYSKWLDSARAQEFVKWLEDEPSSGAPPPS-OH; N-terminus assumed), for which the EC50 was 0.398 nM in assay [1] (Table 3) and greater than 1 nM in assay [2] (setting [3]).
The corresponding values for `CC(C)C[C@H](NC(=O)[C@H](Cc1ccc(O)cc1)NC(=O)[C@H](CCCCN)NC(=O)[C@H](CO)NC(=O)[C@H](Cc1ccc(O)cc1)NC(=O)[C@H](CC(=O)O)NC(=O)[C@H](CO)NC(=O)[C@@H](NC(=O)[C@H](Cc1ccccc1)NC(=O)[C@@H](NC(=O)CNC(=O)[C@H](CCC(N)=O)NC(=O)[C@H](CO)NC(=O)[C@@H](N)Cc1c[nH]c2ccccc12)[C@@H](C)O)[C@@H](C)O)C(=O)N[C@@H](CC(=O)O)C(=O)NC(C)(C)C(=O)N[C@@H](CCCCN)C(=O)N[C@@H](C)C(=O)N[C@@H](C)C(=O)N[C@@H](CCC(N)=O)C(=O)N[C@@H](CCC(=O)O)C(=O)N[C@@H](Cc1ccccc1)C(=O)N[C@H](C(=O)NC(C)(C)C(=O)N[C@@H](Cc1c[nH]c2ccccc12)C(=O)N[C@@H](CC(C)C)C(=O)N[C@@H](CCC(=O)O)C(=O)N[C@@H](CC(=O)O)C(=O)N[C@@H](CCC(=O)O)C(=O)N1CCC[C@H]1C(=O)N[C@@H](CO)C(=O)N[C@@H](CO)C(=O)NCC(=O)N[C@@H](CCCCN)C(=O)N1CCC[C@H]1C(=O)N1CCC[C@H]1C(=O)N1CCC[C@H]1C(=O)N[C@@H](CO)C(=O)O)C(C)C` [Compound A93] (H-WSQGTFTSDYSKYLD[Aib]KAAQEFV[Aib]WLEDEPSSGKPPPS-OH; N-terminus assumed) are 0.0126 nM and greater than 1 nM.
